# Experimental data taken from the supplement of paper PMC11208160.
# Experiment: recombinant UMI read abundance after kanamycin selection (control-corrected) (log10(CPM+1)); higher = more efficient recombination; extreme values may be limits of the assay; sequences stand for … in AGTGCAGAGAAAATCGGCCAGTTTTCTCTGCCTGCAGTCCGCATGCCGTGGGACCCCTTGGGTTCTAACCTGTTGCCTAGATTTATGCAGCGGACTGCCTTTCTCCCAAAGTGATAAACCGG…AGGTTGGTTTCACT; site = the 11-nt donor
# How it was run: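 Sequencing read counts were converted to CPM, averaged over two replicates and scaled by control-derived factors. Results are given as log10(CPM+1). The reads covered the donor–target junction of recombinant UMIs from a pooled Escherichia coli screen of donor and donor-binding-loop pairs for the IS621 bridge recombinase.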
# 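Also: IS621 bridge recombinase in Escherichia coli cells against a fixed T5 target plasmid.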
row,Sequence,recombinant UMI read abundance (log10)
1,GACAAACCATGGACCGGTTTTCCCGGTAATCCGTATTTGGG (site GACAAACCTCC),0
2,GACAAACCATGGACCGGTTTTCCCGGTAATCCGTATTTGGG (site GACAAACCTGC),0
3,GACAAACCATGGACCGGTTTTCCCGGTAATCCGTATTTGGG (site GACAAACCTTC),0
4,GACAATCCATGGACCGGTTTTCCCGGTAATCCGTATTTGAA (site GACAATCCTTT),0.601
5,GACAATCCATGGACCGGTTTTCCCGGTAATCCGTATTTGAA (site GCCAATCCTTT),0
6,GACAATCCATGGACCGGTTTTCCCGGTAATCCGTATTTGAA (site GGCAATCCTTT),0.0165
7,GACAATCCATGGACCGGTTTTCCCGGTAATCCGTATTTGAA (site GTCAATCCTTT),0.0122
8,GACACAGCATGGACCGGTTTTCCCGGTAATCCGTATTTGAC (site GACACAGCTGT),2.44
9,GACACGTCATGGACCGGTTTTCCCGGTAATCCGTATTTGCC (site GACACGTCTGG),2.45
10,GACAGCTCATGGACCGGTTTTCCCGGTAATCCGTATTTGGT (site GACAGCTCTAC),1.68
11,GACAGCTCATGGACCGGTTTTCCCGGTAATCCGTATTTGTC (site GACAGCTCTGA),1.15
12,GACCAGCCATGGACCGGTTTTCCCGGTAATCCGTATTTGTT (site GACCAGCCTAA),0
13,GACCGCTCATGGACCGGTTTTCCCGGTAATCCGTATTTGGC (site GACCGCTCTGC),2.43
14,GACCGGGCATGGACCGGTTTTCCCGGTAATCCGTATTTGAA (site GACCGGGCTTT),0.143
15,GACCGGGCATGGACCGGTTTTCCCGGTAATCCGTATTTGCG (site GACCGGGCTCG),0
16,GACCGTTCATGGACCGGTTTTCCCGGTAATCCGTATTTGCT (site GACCGTTCTAG),1.7
17,GACCTCTCATGGACCGGTTTTCCCGGTAATCCGTATTTGTA (site GACCTCTCTTA),2.09
18,GACCTTTCATGGACCGGTTTTCCCGGTAATCCGTATTTGTT (site GACCTTTCTAA),0
19,GACGACGCATGGACCGGTTTTCCCGGTAATCCGTATTTGTC (site GACGACGCTGA),2.6

row,Sequence,recombinant UMI read abundance (log10)
1,GACGATTCATGGACCGGTTTTCCCGGTAATCCGTATTTGAT (site GACGATTCTAT),2.03
2,GACGATTCATGGACCGGTTTTCCCGGTAATCCGTATTTGTT (site GAAGATTCTAA),0.149
3,GACGATTCATGGACCGGTTTTCCCGGTAATCCGTATTTGTT (site GACGATTCTAA),2.04
4,GACGATTCATGGACCGGTTTTCCCGGTAATCCGTATTTGTT (site GAGGATTCTAA),0
5,GACGATTCATGGACCGGTTTTCCCGGTAATCCGTATTTGTT (site GATGATTCTAA),0.263
6,GACGGCCCATGGACCGGTTTTCCCGGTAATCCGTATTTGTT (site AACGGCCCTAA),0.00882
7,GACGGCCCATGGACCGGTTTTCCCGGTAATCCGTATTTGTT (site CACGGCCCTAA),0.0467
8,GACGGCCCATGGACCGGTTTTCCCGGTAATCCGTATTTGTT (site GACGGCCCTAA),0
9,GACGGCCCATGGACCGGTTTTCCCGGTAATCCGTATTTGTT (site TACGGCCCTAA),0.00762
10,GACTAACCATGGACCGGTTTTCCCGGTAATCCGTATTTGGT (site GACAAACCTAC),0.0462
11,GACTAACCATGGACCGGTTTTCCCGGTAATCCGTATTTGGT (site GACCAACCTAC),0.00701
12,GACTAACCATGGACCGGTTTTCCCGGTAATCCGTATTTGGT (site GACGAACCTAC),0
13,GACTAACCATGGACCGGTTTTCCCGGTAATCCGTATTTGGT (site GACTAACCTAC),0
14,GACTATTCATGGACCGGTTTTCCCGGTAATCCGTATTTGTA (site GACTATTCTTA),1.34
15,GACTCCTCATGGACCGGTTTTCCCGGTAATCCGTATTTGAA (site GACTCCTCTTT),1.75
16,GACTGATCATGGACCGGTTTTCCCGGTAATCCGTATTTGGC (site GACTGATCTGC),2.46
17,GACTGGACATGGACCGGTTTTCCCGGTAATCCGTATTTGAC (site GAATGGACTGT),0
18,GACTGGACATGGACCGGTTTTCCCGGTAATCCGTATTTGAC (site GACTGGACTGT),1.89
19,GACTGGACATGGACCGGTTTTCCCGGTAATCCGTATTTGAC (site GAGTGGACTGT),0.438

row,Sequence,recombinant UMI read abundance (log10)
1,GACTGGACATGGACCGGTTTTCCCGGTAATCCGTATTTGAC (site GATTGGACTGT),0
2,GACTGGCCATGGACCGGTTTTCCCGGTAATCCGTATTTGCA (site GAATGGCCTTG),0
3,GACTGGCCATGGACCGGTTTTCCCGGTAATCCGTATTTGCA (site GACTGGCCTTG),0
4,GACTGGCCATGGACCGGTTTTCCCGGTAATCCGTATTTGCA (site GAGTGGCCTTG),0
5,GACTGGCCATGGACCGGTTTTCCCGGTAATCCGTATTTGCA (site GATTGGCCTTG),0.0169
6,GAGAAAACATGGACCGGTTTTCCCGGTAATCCGTATTTGCT (site GAGAAAACTAG),1.16
7,GAGAAAACATGGACCGGTTTTCCCGGTAATCCGTATTTGCT (site GCGAAAACTAG),0.0152
8,GAGAAAACATGGACCGGTTTTCCCGGTAATCCGTATTTGCT (site GGGAAAACTAG),0
9,GAGAAAACATGGACCGGTTTTCCCGGTAATCCGTATTTGCT (site GTGAAAACTAG),0
10,GAGAAATCATGGACCGGTTTTCCCGGTAATCCGTATTTGCG (site GAGAAATCTCG),0
11,GAGAACCCATGGACCGGTTTTCCCGGTAATCCGTATTTGGA (site GAGAACCCTTC),0
12,GAGAAGACATGGACCGGTTTTCCCGGTAATCCGTATTTGAA (site GAGAAGACTTT),1.82
13,GAGAAGCCATGGACCGGTTTTCCCGGTAATCCGTATTTGTC (site GAGAAGCCTGA),0
14,GAGAATACATGGACCGGTTTTCCCGGTAATCCGTATTTGCA (site AAGAATACTTG),0
15,GAGAATACATGGACCGGTTTTCCCGGTAATCCGTATTTGCA (site CAGAATACTTG),0.0136
16,GAGAATACATGGACCGGTTTTCCCGGTAATCCGTATTTGCA (site GAGAATACTTG),2.23
17,GAGAATACATGGACCGGTTTTCCCGGTAATCCGTATTTGCA (site TAGAATACTTG),0.944
18,GAGACGCCATGGACCGGTTTTCCCGGTAATCCGTATTTGCC (site GAGACGCCTGG),0
19,GAGACGGCATGGACCGGTTTTCCCGGTAATCCGTATTTGAG (site GAGACGGCTCT),0.892
